ChEMBL document CHEMBL4689842, “EUbOPEN Chemogenomics Library wave 1” (2021)

How the values were obtained:
Type in all cases: toxicity, cell-based
HEK-293T = test: Incucyte cell viability with HEK293T; conditions: human, 10 µM, compound concentration 10 uM
Fibroblast = test: Incucyte cell viability with human fibroblast; conditions: 10 µM, compound concentration 10 uM
U2OS = test: Incucyte cell viability with U2OS; conditions: human, 10 µM, compound concentration 10 uM
[1] = 0 h, replicate number 1, timepoint 0 hours
[2] = 6 h, replicate number 1, timepoint 6 hours
[3] = 6 h, replicate number 2, timepoint 6 hours
[4] = 12 h, replicate number 1, timepoint 12 hours
[5] = 18 h, replicate number 1, timepoint 18 hours
[6] = 18 h, replicate number 2, timepoint 18 hours
[7] = 24 h, replicate number 1, timepoint 24 hours
[8] = 24 h, replicate number 2, timepoint 24 hours
[9] = 12 h, replicate number 2, timepoint 12 hours
[10] = 0 h, replicate number 2, timepoint 0 hours
Further: filed as whole numbers so only -1 and 0 and 1 occur.

| SMILES | Growth Rate (HEK-293T; [1]) | Growth Rate (HEK-293T; [2]) | Growth Rate (HEK-293T; [3]) | Growth Rate (HEK-293T; [4]) | Growth Rate (HEK-293T; [5]) | Growth Rate (HEK-293T; [7]) | Growth Rate (Fibroblast; [1]) | Growth Rate (Fibroblast; [2]) | Growth Rate (Fibroblast; [4]) | Growth Rate (Fibroblast; [5]) | Growth Rate (Fibroblast; [6]) | Growth Rate (Fibroblast; [7]) | Growth Rate (U2OS; [1]) | Growth Rate (U2OS; [3]) | Growth Rate (U2OS; [4]) | Growth Rate (U2OS; [5]) | Growth Rate (U2OS; [7]) | Growth Rate (U2OS; [8]) | Growth Rate (U2OS; [6]) | Growth Rate (U2OS; [10]) | also measured |
| --- | --- | --- | --- | --- | --- | --- | --- | --- | --- | --- | --- | --- | --- | --- | --- | --- | --- | --- | --- | --- | --- |
| CN([C@@H]1CCc2c(CC(=O)O)c3ccccc3n2C1)S(=O)(=O)c1ccc(F)cc1 [MK-7246] | 0 | 0 | 1 | 0 | 0 | 0 | 0 | 0 | 0 | 0 | 1 | 0 | 0 | 0 | 1 | 1 | 0 | 1 |  |  | Growth Rate (HEK-293T; [6]): 1; Growth Rate (HEK-293T; [8]): 1; Growth Rate (Fibroblast; [9]): 1 |
| Cc1cc(Nc2nccc(C)n2)cc(-c2cnc([C@@]3(O)CC[C@H](C(=O)O)C(C)(C)C3)s2)c1 [MRL-SYKi] |  | 0 |  | 0 | 0 | 0 |  | 0 | 0 | 0 |  | 1 | 0 |  | 0 | 0 | 0 |  | 1 |  | Growth Rate (Fibroblast; [10]): 1; Growth Rate (Fibroblast; [8]): 0; Growth Rate (U2OS; [2]): 0 |
| CC(=O)Nc1c(C(C)=O)c(=O)n(C)c2nc(-c3ccc(Cl)cc3Cl)c(-c3ccc(Cl)cc3)cc12 [NAPHTHYRIDINONE] | 0 | 0 | 1 | 0 | 0 | 0 | 0 | 1 | 0 | 0 |  | 0 |  | 1 | 0 | 0 | 0 | 1 | 1 | 0 | Growth Rate (Fibroblast; [3]): 0 |
| Nc1nc(NCc2ccccc2)nc(-c2ccccc2CO)n1 [Ogerin] | 1 | 0 | 1 | 1 | 1 | 0 | 1 | 0 | 0 | 0 |  | 0 |  | 1 | 1 | 1 | 1 |  |  | 0 | Growth Rate (HEK-293T; [10]): 0; Growth Rate (HEK-293T; [8]): 1 |
| COc1ccc(C2(O)OC(=O)C(c3ccc4c(c3)OCO4)=C2Cc2cc(OC)c(OC)c(OC)c2)cc1 (centres undefined) [PD-156707] | 0 | 1 | 0 | 1 | 0 | 0 | 1 | 0 | 0 | 0 | 1 | 0 |  |  | 0 | 0 | 0 | 1 | 1 | 1 | Growth Rate (HEK-293T; [9]): 0; Growth Rate (Fibroblast; [10]): 0; Growth Rate (Fibroblast; [8]): 1; Growth Rate (U2OS; [2]): 1; Growth Rate (U2OS; [9]): 1 |
| CN(c1ccnc(CNc2nc(Nc3ccc4c(c3)CC(=O)N4)ncc2C(F)(F)F)n1)S(C)(=O)=O [PF-00911705] |  | 0 |  | 0 | 0 | 0 | 0 |  | 1 | 0 |  | 1 |  |  | 0 | 0 | 0 |  |  | 0 | Growth Rate (Fibroblast; [3]): 0; Growth Rate (Fibroblast; [9]): 0; Growth Rate (Fibroblast; [8]): 0; Growth Rate (U2OS; [2]): 0 |
| COc1ccc2cc(OCC3(C(=O)O)CN(C(=O)c4ccc(F)cc4)C3)ccc2c1 [PF-04418948] | 0 | 1 | 0 | 1 | 1 | 1 | 0 | 0 | 0 | 0 | 1 | 0 | 0 | 0 | 1 | 1 | 1 | 0 | 0 |  | Growth Rate (HEK-293T; [6]): 0; Growth Rate (Fibroblast; [3]): 1; Growth Rate (Fibroblast; [8]): 1; Growth Rate (U2OS; [9]): 0 |
| O=C(c1ccc(F)cc1)N1CC(COc2ccc(Br)cc2)(C(=O)O)C1 [PF-04475866] | 0 | 1 | 0 | 1 | 0 | 1 | 0 |  |  |  | 1 | 1 | 1 |  | 1 | 0 | 1 |  | 1 | 0 | Growth Rate (HEK-293T; [9]): 0; Growth Rate (HEK-293T; [8]): 0; Growth Rate (U2OS; [2]): 1 |
